Experimental data as given in PubChem BioAssay AID258 (DTP/NCI, 2004).
Several values for one entry are separate records, joined by “and”; a condition that tells them apart may be missing. Equal entries are not always repeated. Toxic doses and inconclusive results are not listed.

System: CD2F1 mice, L1210 leukemia sc, survival T/C
Assay: NCI In Vivo Anticancer Drug Screen. Data for tumor model L1210 Leukemia (subcutaneous) in CD2F1 (CDF1) mice
Conditions: higher = longer survival
How it was run: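 Antitumor activity is scored in tumor-bearing mice by comparing survival or tumor size of treated animals against vehicle-treated controls, reported as T/C.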

[1] = endpoint: median survival time, dose: 39.0 mg/kg/injection, schedule: Q01DX Z (sc), vehicle: water
[2] = endpoint: median survival time, dose: 65.0 mg/kg/injection, schedule: Q01DX Z (sc), vehicle: water
[3] = endpoint: median survival time, dose: 108.0 mg/kg/injection, schedule: Q01DX Z (sc), vehicle: water
[4] = endpoint: median survival time, dose: 180.0 mg/kg/injection, schedule: Q01DX Z (sc), vehicle: water
[5] = endpoint: median survival time, dose: 300.0 mg/kg/injection, schedule: Q01DX Z (sc), vehicle: water

In the case of `Nc1nncs1`, the T/C (endpoint: median survival time, dose: 39.0 mg/kg/injection, schedule: Q02DX005 (sc), vehicle: water) is reported as 100 % of control and 103 % of control, the T/C (endpoint: median survival time, dose: 65.0 mg/kg/injection, schedule: Q02DX005 (sc), vehicle: water) is reported as 100 % of control and 102 % of control and the T/C (endpoint: median survival time, dose: 108.0 mg/kg/injection, schedule: Q02DX005 (sc), vehicle: water) is reported as 100 % of control and 106 % of control. For the same compound, the T/C (endpoint: median survival time, dose: 180.0 mg/kg/injection, schedule: Q02DX005 (sc), vehicle: water) was 122 % of control, the T/C (endpoint: median survival time, dose: 300.0 mg/kg/injection, schedule: Q02DX005 (sc), vehicle: water) was 166 % of control and 180 % of control and the T/C (endpoint: median survival time, dose: 300.0 mg/kg/injection, schedule: Q04DX003 (sc), vehicle: saline) was 100 % of control and 104 % of control. The T/C (endpoint: median survival time, dose: 500.0 mg/kg/injection, schedule: Q02DX005 (sc), vehicle: water) was 172 % of control and 180 % of control, the T/C (endpoint: median survival time, dose: 500.0 mg/kg/injection, schedule: Q04DX003 (sc), vehicle: saline) was 105 % of control and 112 % of control and the T/C (endpoint: median survival time, dose: 833.0 mg/kg/injection, schedule: Q04DX003 (sc), vehicle: saline) was 116 % of control and 124 % of control. For the same compound, the T/C (endpoint: median survival time, dose: 1388.0 mg/kg/injection, schedule: Q04DX003 (sc), vehicle: saline) was 154 % of control.
In the case of `COC1=C(N)C(=O)c2nc(-c3nc(C(=O)O)c(C)c(-c4ccc(OC)c(OC)c4O)c3N)ccc2C1=O`, the T/C (endpoint: median survival time, dose: 0.13 mg/kg/injection, schedule: Q01DX Z (sc), vehicle: water) is reported as 110 % of control, the T/C (endpoint: median survival time, dose: 0.22 mg/kg/injection, schedule: Q01DX Z (sc), vehicle: water) is reported as 110 % of control and the T/C (endpoint: median survival time, dose: 0.36 mg/kg/injection, schedule: Q01DX Z (sc), vehicle: water) is reported as 110 % of control. The T/C (endpoint: median survival time, dose: 0.6 mg/kg/injection, schedule: Q01DX Z (sc), vehicle: water) was 105 % of control and the T/C (endpoint: median survival time, dose: 1.0 mg/kg/injection, schedule: Q01DX Z (sc), vehicle: water) was 110 % of control.
In the case of `OC(CBr)C(O)C(O)C(O)CBr` (stereo unspecified), the T/C (endpoint: median survival time, dose: 40.0 mg/kg/injection, schedule: Q01DX009 (ip), vehicle: saline) is reported as 103 % of control, the T/C (endpoint: median survival time, dose: 40.0 mg/kg/injection, schedule: Q01DX009 (sc), vehicle: saline + alcohol) is reported as 105 % of control and the T/C (endpoint: median survival time, dose: 40.0 mg/kg/injection, schedule: Q01DX009 (sc), vehicle: saline with Tween-80) is reported as 103 % of control. The T/C (endpoint: median survival time, dose: 80.0 mg/kg/injection, schedule: Q01DX009 (ip), vehicle: saline) was 113 % of control, the T/C (endpoint: median survival time, dose: 80.0 mg/kg/injection, schedule: Q01DX009 (sc), vehicle: saline + alcohol) was 116 % of control and the T/C (endpoint: median survival time, dose: 100.0 mg/kg/injection, schedule: Q01DX009 (ip), vehicle: saline with Tween-80) was 100 % of control. The T/C (endpoint: median survival time, dose: 100.0 mg/kg/injection, schedule: Q01DX009 (sc), vehicle: saline with Tween-80) was 103 % of control, the T/C (endpoint: median survival time, dose: 108.0 mg/kg/injection, schedule: Q01DX Z (sc), vehicle: carboxymethylcellulose (CMC)) was 100 % of control and the T/C (endpoint: median survival time, dose: 160.0 mg/kg/injection, schedule: Q01DX009 (sc), vehicle: saline + alcohol) was 121 % of control. The T/C (endpoint: median survival time, dose: 160.0 mg/kg/injection, schedule: Q01DX009 (sc), vehicle: saline with Tween-80) was 103 % of control, the T/C (endpoint: median survival time, dose: 200.0 mg/kg/injection, schedule: Q01DX009 (ip), vehicle: saline with Tween-80) was 103 % of control and the T/C (endpoint: median survival time, dose: 200.0 mg/kg/injection, schedule: Q01DX009 (sc), vehicle: saline with Tween-80) was 102 % of control. The T/C (endpoint: median survival time, dose: 240.0 mg/kg/injection, schedule: Q01DX009 (ip), vehicle: saline with Tween-80) was 124 % of control, the T/C (endpoint: median survival time, dose: 300.0 mg/kg/injection, schedule: Q01DX Z (sc), vehicle: carboxymethylcellulose (CMC)) was 100 % of control and the T/C (endpoint: median survival time, dose: 320.0 mg/kg/injection, schedule: Q01DX009 (sc), vehicle: saline with Tween-80) was 109 % of control. For the same compound, the T/C (endpoint: median survival time, dose: 400.0 mg/kg/injection, schedule: Q01DX009 (ip), vehicle: saline with Tween-80) was 103 % of control, the T/C (endpoint: median survival time, dose: 400.0 mg/kg/injection, schedule: Q01DX009 (sc), vehicle: saline with Tween-80) was 110 % of control and the T/C (endpoint: median survival time, dose: 480.0 mg/kg/injection, schedule: Q01DX009 (ip), vehicle: saline with Tween-80) was 88 % of control. For the same compound, the T/C (endpoint: median survival time, dose: 500.0 mg/kg/injection, schedule: Q01DX Z (sc), vehicle: carboxymethylcellulose (CMC)) was 100 % of control, the T/C (endpoint: median survival time, dose: 640.0 mg/kg/injection, schedule: Q01DX009 (ip), vehicle: saline with Tween-80) was 93 % of control and the T/C (endpoint: median survival time, dose: 640.0 mg/kg/injection, schedule: Q01DX009 (sc), vehicle: saline with Tween-80) was 104 % of control. The T/C (endpoint: median survival time, dose: 800.0 mg/kg/injection, schedule: Q01DX009 (ip), vehicle: saline with Tween-80) was 98 % of control, the T/C (endpoint: median survival time, dose: 800.0 mg/kg/injection, schedule: Q01DX009 (sc), vehicle: saline with Tween-80) was 111 % of control and the T/C (endpoint: median survival time, dose: 960.0 mg/kg/injection, schedule: Q01DX009 (ip), vehicle: saline with Tween-80) was 96 % of control.
In the case of `CCN(CC)c1ccc(/C=C/c2ccnc3ccccc23)cc1`, the T/C [1] is reported as 100 % of control, the T/C [2] is reported as 100 % of control and the T/C [3] is reported as 100 % of control. For the same compound, the T/C [4] was 100 % of control, the T/C [5] was 100 % of control and the T/C (endpoint: median survival time, dose: 500.0 mg/kg/injection, schedule: Q01DX Z (sc), vehicle: water) was 100 % of control.
For `CN1CCN(CN2C(=O)C3C4C=CC(C3C2=O)C2C3C(=O)N(CN5CCN(C)CC5)C(=O)C3C42)CC1` (stereo unspecified), the T/C (endpoint: median survival time, dose: 21.6 mg/kg/injection, schedule: Q01DX009 (ip), vehicle: water) was 106 % of control, the T/C (endpoint: median survival time, dose: 24.8 mg/kg/injection, schedule: Q01DX009 (ip), vehicle: water) was 118 % of control and the T/C (endpoint: median survival time, dose: 36.0 mg/kg/injection, schedule: Q01DX009 (ip), vehicle: water) was 113 % of control. The T/C (endpoint: median survival time, dose: 41.3 mg/kg/injection, schedule: Q01DX009 (ip), vehicle: water) was 150 % of control, the T/C (endpoint: median survival time, dose: 60.0 mg/kg/injection, schedule: Q01DX009 (ip), vehicle: water) was 170 % of control and the T/C (endpoint: median survival time, dose: 68.8 mg/kg/injection, schedule: Q01DX009 (ip), vehicle: water) was 174 % of control. The T/C (endpoint: median survival time, dose: 100.0 mg/kg/injection, schedule: Q01DX009 (ip), vehicle: water) was 243 % of control and the T/C (endpoint: median survival time, dose: 114.7 mg/kg/injection, schedule: Q01DX009 (ip), vehicle: water) was 235 % of control.
`Nc1ccn(C2OC(COP(=O)(O)O)C(O)C2O)c(=O)n1` (stereo unspecified) was tested, and the T/C (endpoint: mean survival time, dose: 22.5 mg/kg/injection, schedule: Q ##X009 (ip), vehicle: saline) was 181 % of control, the T/C (endpoint: mean survival time, dose: 45.0 mg/kg/injection, schedule: Q ##X009 (ip), vehicle: saline) was 206 % of control and the T/C (endpoint: mean survival time, dose: 90.0 mg/kg/injection, schedule: Q ##X009 (ip), vehicle: saline) was 161 % of control. For the same compound, the T/C (endpoint: mean survival time, dose: 180.0 mg/kg/injection, schedule: Q ##X009 (ip), vehicle: saline) was 176 % of control, the T/C (endpoint: median survival time, dose: 22.5 mg/kg/injection, schedule: Q ##X009 (ip), vehicle: saline) was 179 % of control and the T/C (endpoint: median survival time, dose: 22.5 mg/kg/injection, schedule: Q## X Z (ip), vehicle: saline) was 188 % of control. The T/C (endpoint: median survival time, dose: 45.0 mg/kg/injection, schedule: Q ##X009 (ip), vehicle: saline) was 198 % of control, the T/C (endpoint: median survival time, dose: 45.0 mg/kg/injection, schedule: Q## X Z (ip), vehicle: saline) was 211 % of control and the T/C (endpoint: median survival time, dose: 90.0 mg/kg/injection, schedule: Q ##X009 (ip), vehicle: saline) was 175 % of control. For the same compound, the T/C (endpoint: median survival time, dose: 90.0 mg/kg/injection, schedule: Q## X Z (ip), vehicle: saline) was 183 % of control, the T/C (endpoint: median survival time, dose: 180.0 mg/kg/injection, schedule: Q ##X009 (ip), vehicle: saline) was 169 % of control and the T/C (endpoint: median survival time, dose: 180.0 mg/kg/injection, schedule: Q## X Z (ip), vehicle: saline) was 177 % of control.
In the case of `O=C(CSc1ncnc2nc[nH]c12)c1ccccc1`, the T/C (endpoint: median survival time, dose: 38.9 mg/kg/injection, schedule: Q01DX Z (sc), vehicle: methylcellulose (MC)) is reported as 95 % of control, the T/C (endpoint: median survival time, dose: 64.8 mg/kg/injection, schedule: Q01DX Z (sc), vehicle: methylcellulose (MC)) is reported as 95 % of control and the T/C (endpoint: median survival time, dose: 108.0 mg/kg/injection, schedule: Q01DX Z (sc), vehicle: methylcellulose (MC)) is reported as 100 % of control. For the same compound, the T/C (endpoint: median survival time, dose: 180.0 mg/kg/injection, schedule: Q01DX Z (sc), vehicle: methylcellulose (MC)) was 100 % of control, the T/C (endpoint: median survival time, dose: 300.0 mg/kg/injection, schedule: Q01DX Z (sc), vehicle: methylcellulose (MC)) was 100 % of control and the T/C (endpoint: median survival time, dose: 500.0 mg/kg/injection, schedule: Q01DX Z (sc), vehicle: methylcellulose (MC)) was 100 % of control.
For `COCCCNc1ncnc2[nH]ncc12`, the T/C (endpoint: median survival time, dose: 23.0 mg/kg/injection, schedule: Q01DX Z (sc), vehicle: water) was 100 % of control, the T/C [1] was 100 % of control and the T/C [2] was 100 % of control. The T/C [3] was 100 % of control, the T/C [4] was 109 % of control and the T/C [5] was 109 % of control.
For `Nc1nc(N)c2[nH]cnc2n1`, the T/C (endpoint: median survival time, dose: 20.0 mg/kg/injection, schedule: Q01DX Z (sc), vehicle: steriod suspending solution) was 106 % of control, the T/C (endpoint: median survival time, dose: 40.0 mg/kg/injection, schedule: Q01DX Z (sc), vehicle: steriod suspending solution) was 100 % of control and the T/C (endpoint: median survival time, dose: 80.0 mg/kg/injection, schedule: Q01DX Z (sc), vehicle: steriod suspending solution) was 100 % of control. For the same compound, the T/C (endpoint: median survival time, dose: 160.0 mg/kg/injection, schedule: Q01DX Z (sc), vehicle: steriod suspending solution) was 100 % of control.
